Assay results: patent US7507727B2, “Substituted quinobenzoxazine analogs and methods of using thereof” (Cylene Pharmaceuticals, Inc., priority 2003, dated 2009)

target: c-Myc template DNA (c-myc quadruplex); assay: Quadruplex binding / stop assay (Taq polymerase arrest, capillary electrophoresis); details: read-out: S DATA; Table 1D, stop assay data

| IC50 | Structure (SMILES) |
| --- | --- |
| > 15 µM | CC(C)N1CCN(c2c(F)cc3c(=O)c(C(=O)NCCCN4CCN(C)CC4)cn4c3c2Oc2ccccc2-4)CC1 [compound 1563] |
| 0.75 µM | CN1CCCC1CCNc1ccc2c(=O)c(C(=O)NCCN3CCCC3)cn3c2c1Oc1cc2ccccc2cc1-3 (stereo not shown) [compound 1522] |
| 1.75 µM | COc1ccc(OC)c(CCNc2c(F)cc3c(=O)c(C(=O)NCCC4CCCN4C)cn4c3c2Oc2cc3ccccc3cc2-4)c1 (stereo not shown) [compound 1672] |
| > 15 µM | NC1CCN(C(=O)c2cn3c4c(c(NCCN5CCOCC5)c(F)cc4c2=O)Oc2ccccc2-3)C1 (stereo not shown) [compound 1630] |
| > 15 µM | CN1CCCC1CCNC(=O)c1cn2c3c(c(SCCc4cnccn4)c(F)cc3c1=O)Oc1ccc(Cl)cc1-2 (stereo not shown) [compound 1787] |
| 0.75 µM | CN1CCC(NC(=O)c2cn3c4c(c(N5CCC(N)C5)c(F)cc4c2=O)Oc2cc4ccccc4cc2-3)CC1 (stereo not shown) [compound 1717] |
| > 15 µM | CN(C)CCCCNC(=O)c1cn2c3c(c(N4CCC(NC(=O)OC(C)(C)C)C4)c(F)cc3c1=O)Oc1ccccc1-2 (stereo not shown) [compound 1588] |
| 1.75 µM | CN1CCCC1CCNC(=O)c1cn2c3c(c(NCC4CCNCC4)c(F)cc3c1=O)Oc1cc3ccccc3cc1-2 (stereo not shown) [compound 1481] |
| > 15 µM | COC(=O)N[C@H]1CCN(c2c(F)cc3c(=O)c(C(=O)NCCC4CCCN4C)cn4c3c2Oc2cc3ccccc3cc2-4)C1 (stereo partly shown) [compound 1515] |
| > 15 µM | O=C(NCCN1CCOCC1)c1cn2c3c(c(NCCN4CCCC4)c(F)cc3c1=O)Oc1ccccc1-2 [compound 1593] |
| > 15 µM | O=C(c1cn2c3c(c(N4CC5CCCNC5C4)c(F)cc3c1=O)Oc1cc3ccccc3cc1-2)N1CCC(N2CCCC2)CC1 (stereo not shown) [compound 1643] |
| 1.75 µM | O=C(NCCCN1CCOCC1)c1cn2c3c(c(NCCN4CCCC4)ccc3c1=O)Oc1cc3ccccc3cc1-2 [compound 1518] |
| > 15 µM | O=C(NCCCN1CCOCC1)c1cn2c3c(c(NCCCN4CCOCC4)c(F)cc3c1=O)Oc1ccccc1-2 [compound 1560] |
| 10 µM | CC(C)C(=O)N1CCN(c2c(F)cc3c(=O)c(C(=O)NCCN4CCCC4)cn4c3c2Oc2cc(Cl)ccc2-4)CC1 [compound 1823] |
| > 15 µM | CC(C)(C)OC(=O)NC1CCN(C(=O)c2cn3c4c(c(NCCN5CCOCC5)c(F)cc4c2=O)Oc2ccccc2-3)C1 (stereo not shown) [compound 1607] |
| 1 µM | N=C(N)NCCCNC(=O)c1cn2c3c(c(NCCN4CCCC4)c(F)cc3c1=O)Oc1cc3ccccc3cc1-2 [compound 1654] |
| > 15 µM | CC(C)N1CCN(c2c(F)cc3c(=O)c(C(=O)NCCN4CCCC4)cn4c3c2Oc2ccc(C#N)cc2-4)CC1 [compound 1796] |
| 1 µM | N=C(N)NCC1CCCC(CNC(=O)c2cn3c4c(c(NCCCN5CCOCC5)c(F)cc4c2=O)Oc2cc4ccccc4cc2-3)C1 (stereo not shown) [compound 1651] |
| > 15 µM | NCCCCNC(=O)c1cn2c3c(c(NCCN4CCCC4)c(F)cc3c1=O)Oc1ccccc1-2 [compound 1599] |
| > 15 µM | CC(C)N1CCN(c2c(F)cc3c(=O)c(C(=O)N4CCN(C)CC4)cn4c3c2Oc2ccccc2-4)CC1 [compound 1570] |

same assay, conditions: read-out: Stop Data c-Myc μM; concentration at which 50% of the DNA was arrested (arrested:full-length 1:1)

| Structure (SMILES) | IC50 |
| --- | --- |
| CCCCN1CCC(CNc2c(F)cc3c(=O)c(C(=O)NCCC4CCCN4C)cn4c3c2Oc2cc3ccccc3cc2-4)CC1 (stereo not shown) [compound 336] | 1 µM |
| CN1CCC[C@@H]1CCNC(=O)c1cn2c3c(c(N4CCC(c5cnccn5)C4)c(F)cc3c1=O)Oc1cc3ccccc3cc1-2 (stereo partly shown) [compound 356] | 0.85 µM |
| CC(C)(C)OC(=O)NC1CCN(c2c(F)c(N)c3c(=O)c(C(=O)N4CCOCC4)cn4c3c2Oc2cc3ccccc3cc2-4)C1 (stereo not shown) [compound 230] | 1.75 µM |
| CN1CCN(CCCNC(=O)c2cn3c4c(c(NCCN5CCOCC5)c(F)cc4c2=O)Oc2c-3ccc3ccccc23)CC1 [compound 130] | 1.75 µM |
| CN1CCN(CCCNC(=O)c2cn3c4c(c(NCCN5CCCC5)c(F)cc4c2=O)Oc2cc4ccccc4cc2-3)CC1 [compound 71] | 2.5 µM |
| N[C@@H]1CCN(c2c(F)cc3c(=O)c(C(=O)NCCCn4ccnc4)cn4c3c2Oc2c-4ccc3ccccc23)C1 [compound 157] | 1.75 µM |
| O=C(NCCN1CCOCC1)c1cn2c3cc4c(cc3oc3c(NCCN5CCOCC5)c(F)cc(c1=O)c32)c(=O)c1ccccc14 [compound 321] | 1 µM |
| CN(C)CCCCNc1c(F)cc2c(=O)c(C(=O)O)cn3c4cc5oc6cc([N+](=O)[O-])ccc6[nH]c5cc4oc1c23 [compound 19] | 0.75 µM |
| CN1CCN(CCCNc2c(F)cc3c(=O)c(C(=O)NCCCN4CCOCC4)cn4c3c2Oc2cc3c(cc2-4)oc2ccccc23)CC1 [compound 149] | 1.75 µM |
| CN(C)CCCCNC(=O)c1cn2c3c(c(NCCCCN(C)C)c(F)cc3c1=O)Oc1cc3ccccc3cc1-2 [compound 126] | 1.75 µM |
| CN(C)c1ccc(NC(=O)c2cn3c4c(c(NCCC5CCCN5C)c(F)cc4c2=O)Oc2c-3ccc3ccccc23)cc1 (stereo not shown) [compound 136] | 1.75 µM |
| CN(C)CCCCNC(=O)c1cn2c3c(c(NCCCN4CCOCC4)c(F)cc3c1=O)Oc1cc3c(cc1-2)oc1ccccc13 [compound 145] | 1.75 µM |
| CN1CCN(C(=O)c2cn3c4c(c(N5CC[C@@H](N)C5)c(F)cc4c2=O)Oc2c-3ccc3ccccc23)CC1 [compound 81] | 2.5 µM |
| CN1CCCC1CCNC(=O)c1cn2c3c(c(N4CCC(N)CC4)c(F)cc3c1=O)Oc1cc3ccccc3cc1-2 (stereo not shown) [compound 281] | 1.75 µM |
| CN(C)c1c(F)cc2c(=O)c(C(=O)O)cn3c4cc5oc6cc(N)ccc6[nH]c5cc4oc1c23 [compound 10] | 1.75 µM |
| CN1CCN(CCCNc2c(F)cc3c(=O)c(C(=O)N4CCN(C)CC4)cn4c5cc6c(=O)c7ccccc7c(=O)c6cc5oc2c34)CC1 [compound 170] | 1.75 µM |
| NC1CCN(C(=O)c2cn3c4c(c(N5CC6CCCNC6C5)c(F)cc4c2=O)Oc2cc4ccccc4cc2-3)C1 (stereo not shown) [compound 282] | 1.75 µM |

| Structure (SMILES) | IC50 |
| --- | --- |
| N[C@@H]1CCN(c2c(F)cc3c(=O)c(C(=O)N4CCOCC4)cn4c3c2Oc2c-4ccc3ccccc23)C1 [compound 79] | 2.5 µM |
| CN1CCN(CCCNC(=O)c2cn3c4c(c(NCCCN5CCOCC5)c(F)cc4c2=O)Oc2cc4c(cc2-3)oc2ccccc24)CC1 [compound 144] | 1.75 µM |
| O=C(NCCCN1CCOCC1)c1cn2c3c(c(NCCCN4CCOCC4)c(F)cc3c1=O)Oc1ccccc1-2 [compound 47] | 2.5 µM |
| O=C(NCCN1CCCC1)c1cn2c3c(c(NCCN4CCOCC4)c(F)cc3c1=O)Oc1cc3c(cc1-2)oc1ccccc13 [compound 148] | 1.75 µM |
| CC(C)(C)OC(=O)NC1CCN(c2c(F)cc3c(=O)c(C(=O)NCC[N+](C)(C)C)cn4c3c2Oc2cc3ccccc3cc2-4)C1 (stereo not shown) [compound 188] | 1.75 µM |
| Nc1c(F)c(N2CCC(N)C2)c2c3c1c(=O)c(C(=O)N1CCOCC1)cn3-c1cc3ccccc3cc1O2 (stereo not shown) [compound 239] | 1.75 µM |
| CN1CCCC1CCNC(=O)c1cn2c3cc4c(=O)c5ccccc5c(=O)c4cc3oc3c(NCCC4CCCN4C)c(F)cc(c1=O)c32 (stereo not shown) [compound 346] | 0.9 µM |
| Nc1c(F)c(N2CCC(N)C2)c2c3c1c(=O)c(C(=O)NCCN1CCOCC1)cn3-c1cc3ccccc3cc1O2 (stereo not shown) [compound 238] | 1.75 µM |
| O=C(CCN1CCOCC1)N[C@@H]1CCN(c2c(F)cc3c(=O)c(C(=O)NCCN4CCCC4)cn4c3c2Oc2cc3c(cc2-4)oc2ccccc23)C1 [compound 404] | 0.75 µM |
| Nc1ccc(CCNC(=O)c2cn3c4c(c(N5CCC(N)C5)c(F)cc4c2=O)Oc2cc4ccccc4cc2-3)cc1 (stereo not shown) [compound 193] | 1.75 µM |
| CC(C)(C)OC(=O)NC1CCN(c2c(F)cc3c(=O)c(C(=O)NCCc4cnc[nH]4)cn4c3c2Oc2cc3ccccc3cc2-4)C1 (stereo not shown) [compound 181] | 1.75 µM |
| O=C(NCCCN1CCOCC1)c1cn2c3c(c(NCCN4CCOCC4)c(F)cc3c1=O)Oc1cc3ccccc3cc1-2 [compound 53] | 2.5 µM |
| CN1CCN(CCCNC(=O)c2cn3c4c(c(NCCCN5CCOCC5)c(F)c(N)c4c2=O)Oc2cc4ccccc4cc2-3)CC1 [compound 223] | 1.75 µM |
| CN(C)CCCCNC(=O)c1cn2c3c(c(N4CC[C@@H](NC(=O)CCNCCN5CCOCC5)C4)c(F)cc3c1=O)Oc1cc3c(cc1-2)oc1ccccc13 [compound 405] | 0.75 µM |
| CN1CCCC1CCNc1c(F)cc2c(=O)c(C(=O)NCCN3CCOCC3)cn3c2c1Oc1cc2ccccc2cc1-3 (stereo not shown) [compound 67] | 2.5 µM |
| CN1CCCC1CCNC(=O)c1cn2c3c(c(NC4CC(C)(C)NC(C)(C)C4)c(F)cc3c1=O)Oc1cc3ccccc3cc1-2 (stereo not shown) [compound 325] | 1 µM |
| CC(C)(C)OC(=O)NC1CCN(c2c(F)cc3c(=O)c(C(=O)NCCCCN4CCCC4)cn4c3c2Oc2cc3ccccc3cc2-4)C1 (stereo not shown) [compound 323] | 1 µM |

Continued, values first:

| IC50 | Structure (SMILES) |
| --- | --- |
| 0.75 µM | CC1(C)CC(NC(=O)c2cn3c4c(c(NCCN5CCCC5)ccc4c2=O)Oc2cc4ccccc4cc2-3)CC(C)(C)N1 [compound 447] |
| 0.42 µM | CN1CCCC1CCNc1c(F)cc2c(=O)c(C(=O)N3CCOCC3)cn3c2c1Oc1cc2ccccc2cc1-3 (stereo not shown) [compound 495] |
| 0.75 µM | CN1CCCC1CCNC(=O)c1cn2c3cc4oc5cc([N+](=O)[O-])ccc5[nH]c4cc3oc3c(NCCCN4CCOCC4)c(F)cc(c1=O)c32 (stereo not shown) [compound 408] |
| 0.375 µM | CN1CCCC1CCNc1c(F)cc2c(=O)c(C(=O)NCCCN3CCOCC3)cn3c4cc5oc6cc([N+](=O)[O-])ccc6[nH]c5cc4oc1c23 (stereo not shown) [compound 553] |
| 0.75 µM | CN(C)CCCCNC(=O)c1cn2c3c(c(N4CCC(N)C4)c(F)cc3c1=O)Oc1ccccc1-2 (stereo not shown) [compound 460] |
| 0.375 µM | CN1CCN(CCCNC(=O)c2cn3c4c(c(NCCC5CCCN5C)c(F)cc4c2=O)Oc2c-3ccc3ccccc23)CC1 (stereo not shown) [compound 549] |
| 0.75 µM | CC1CCN(CCCNc2c(F)cc3c(=O)c(C(=O)NCCC4CCCN4C)cn4c3c2Oc2cc3ccccc3cc2-4)CC1 (stereo not shown) [compound 438] |
| 0.18 µM | CN(C)CCCCNc1c(F)cc2c(=O)c(C(=O)NCCN3CCCC3)cn3c4cc5oc6cc([N+](=O)[O-])ccc6[nH]c5cc4oc1c23 [compound 586] |
| 0.18 µM | CN(C)CCCCNC(=O)c1cn2c3cc4oc5cc([N+](=O)[O-])ccc5[nH]c4cc3oc3c(NCCCCN(C)C)c(F)cc(c1=O)c32 [compound 587] |
| 0.5 µM | CN1CCCC1CCNc1c(F)cc2c(=O)c(C(=O)NCCN3CCCC3)cn3c2c1Oc1cc2ccccc2cc1-3 (stereo not shown) [compound 488] |
